Structures can show the parent of a compound that is named as a salt. Where two headings read alike, the source gives them in different places.
Key:
Assay type in all cases: cell-based, human
SMN2 mRNA = assay: Splicing RT-qPCR gene panel, SMN2 canonical junction (CJ) mRNA; conditions: Homo sapiens, Tables 4A/4B, read-out: SMN2 (IC50, decrease in CJ mRNA, gene panel)
Procedure, shortened: (§1)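 Read-out: RT-qPCR of the canonical exon-exon junction transcript, ΔCt vs housekeeping gene, normalized to DMSO, RQ = 2^(−ΔΔCt), converted to percentage response. Cells, A673 or K562, were dosed 24 h at 37 °C across 11 3-fold dilutions from 10 uM.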

MYB mRNA = assay: Splicing RT-qPCR assay, MYB canonical (CJ) and alternative (AJ) junction mRNA; conditions: Homo sapiens; for AC50: read-out: MYB AJ (AC50, increase in alternative junction mRNA)
Procedure, shortened: (§2)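 Read-out is the abundance of canonical-junction versus new alternative-exon-junction mRNA, determined by real-time qPCR after cDNA synthesis and normalized to a housekeeping gene. It is measured in A673 or K562 cells exposed to compounds for 24 h, top dose 10 uM.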

HTT mRNA [1] = assay: Splicing RT-qPCR assay, HTT canonical (CJ) and alternative (AJ) junction mRNA; conditions: Homo sapiens, A673 or K562 cells, 24 hours compound treatment; for IC50: 24 h, read-out: HTT CJ (IC50, decrease in canonical junction mRNA); for AC50: read-out: HTT AJ (AC50, increase in alternative junction mRNA)
Procedure, shortened: as §2

Target C mRNA = assay: Splicing RT-qPCR gene panel, Target C canonical junction (CJ) mRNA; conditions: Homo sapiens, Tables 4A/4B, read-out: Target C (IC50, decrease in CJ mRNA, gene panel)
Procedure, shortened: as §1

HTT mRNA [2] = assay: Splicing RT-qPCR gene panel, HTT canonical junction (CJ) mRNA; conditions: Homo sapiens, Tables 4A/4B, read-out: HTT (IC50, decrease in CJ mRNA, gene panel)
Procedure, shortened: as §1

[3] = 24 h, A673 or K562 cells, 24 hours compound treatment, RT-qPCR
[4] = 24 h, A673 or K562 cells, 24 hours compound treatment, RT-qPCR, read-out: MYB CJ (IC50, decrease in canonical junction mRNA)
[5] = Tables 4A/4B, canonical junction qPCR panel, read-out: MYB (IC50, decrease in CJ mRNA, gene panel)

SMILES	IC50 (SMN2 mRNA)	AC50 (MYB mRNA; [3])	IC50 (MYB mRNA; [4])	IC50 (MYB mRNA; [5])	IC50 (HTT mRNA [1])	AC50 (HTT mRNA [1])	IC50 (Target C mRNA)	IC50 (HTT mRNA [2])
Cc1cn2nc(NC(=O)c3ccc(N4CCNCC4)c4cn(C)nc34)cc(C)c2n1 [Compound 322, N-{2,8-dimethylimidazo[1,2-b]pyridazin-6-yl}-2-methyl-4-(piperazin-1-yl) indazole-7-carboxamide hydrochloride]	1000 to 10000 nM	> 10000 nM	1000 to 10000 nM	1000 to 10000 nM	> 10000 nM	> 10000 nM	> 10000 nM	> 10000 nM
COc1nc(NC(=O)c2ccc(N3CCNCC3)c3cn(C)nc23)cn2cc(C)nc12 [Compound 323]	< 100 nM	< 100 nM	< 100 nM	< 100 nM	< 100 nM	100 to 1000 nM	1000 to 10000 nM	< 100 nM
Cn1cc2cc(NC(=O)c3ccc(N4CCNCC4)c4cn(C)nc34)ccc2n1 [Compound 324, 2-methyl-N-(2-methylindazol-5-yl)-4-(piperazin-1-yl) indazole-7-carboxamide hydrochloride]	< 100 nM	100 to 1000 nM	100 to 1000 nM	100 to 1000 nM	> 10000 nM	1000 to 10000 nM	> 10000 nM	> 10000 nM
Cc1c(O)c(NC(=O)c2ccc(N3CCNCC3)c3cn(C)nc23)cc2cn(C)nc12 [Compound 325, N-(6-hydroxy-2,7-dimethylindazol-5-yl)-2-methyl-4-(piperazin-1-yl) indazole-7-carboxamide hydrochloride]	< 100 nM	1000 to 10000 nM	1000 to 10000 nM	1000 to 10000 nM	> 10000 nM	> 10000 nM	> 10000 nM	> 10000 nM
Cc1cn2cc(NC(=O)c3ccc(N4C[C@@H](C)N[C@@H](C)C4)c4cn(C)nc34)cc(F)c2n1 [Compound 326, 4-[(3R,5S)-3,5-dimethylpiperazin-1-yl]-N-{8-fluoro-2-methylimidazo[1,2-a]pyridin-6-yl}-2-methylindazole-7-carboxamide]	< 100 nM	< 100 nM	< 100 nM	< 100 nM	100 to 1000 nM	100 to 1000 nM	1000 to 10000 nM	100 to 1000 nM
Cc1cn2cc(NC(=O)c3ccc(N4CCC(CN)C4)c4cn(C)nc34)cc(F)c2n1 (stereo not drawn) [Compound 327, 4-[3-(aminomethyl)pyrrolidin-1-yl]-N-{8-fluoro-2-methylimidazo[1,2-a]pyridin-6-yl}-2-methylindazole-7-carboxamide]	100 to 1000 nM	100 to 1000 nM	100 to 1000 nM	100 to 1000 nM	> 10000 nM	> 10000 nM	> 10000 nM	> 10000 nM
CC(=O)NC1CCN(c2ccc(C(=O)Nc3cc(F)c4nc(C)cn4c3)c3nn(C)cc23)CC1 [Compound 328, 4-(4-acetamidopiperidin-1-yl)-N-{8-fluoro-2-methylimidazo[1,2-a]pyridin-6-yl}-2-methylindazole-7-carboxamide]	100 to 1000 nM	> 10000 nM	1000 to 10000 nM	1000 to 10000 nM	> 10000 nM	> 10000 nM	> 10000 nM	> 10000 nM
Cc1cn2cc(NC(=O)c3ccc(N4CCNCC4)c4cn(CC(O)CO)nc34)cc(F)c2n1 (stereo not drawn) [Compound 329, 2-(2,3-dihydroxypropyl)-N-{8-fluoro-2-methylimidazo[1,2-a]pyridin-6-yl}-4-(piperazin-1-yl)indazole-7-carboxamide]	1000 to 10000 nM	> 10000 nM	> 10000 nM	> 10000 nM	> 10000 nM	> 10000 nM	> 10000 nM	> 10000 nM
CCN(CC)C1CCN(c2ccc(C(=O)Nc3cc(F)c4nc(C)cn4c3)c3nn(CCOC)cc23)C1 (stereo not drawn) [Compound 330, 4-(3-(diethylamino)pyrrolidin-1-yl)-N-(8-fluoro-2-methylimidazo[1,2-a]pyridin-6-yl)-2-(2-methoxyethyl)-2H-indazole-7-carboxamide compound with 2,2,2-trifluoro-113-ethan-1-one]	< 100 nM	100 to 1000 nM	100 to 1000 nM	100 to 1000 nM	> 10000 nM	> 10000 nM	> 10000 nM	> 10000 nM
Cc1nc2c(F)cc(NC(=O)c3ccc(N4CCNCC4)c4cn(C)nc34)cc2n1C [Compound 332, N-(7-fluoro-2,3-dimethyl-1,3-benzodiazol-5-yl)-2-methyl-4-(piperazin-1-yl) indazole-7-carboxamide; trifluoroacetic acid]	> 10000 nM	> 10000 nM	> 10000 nM	> 10000 nM	> 10000 nM	> 10000 nM	> 10000 nM	> 10000 nM
Cc1cn2cc(NC(=O)c3ccc(N4CCNCC4)c4cn(C)nc34)c(F)cc2n1 [Compound 333, N-{7-fluoro-2-methylimidazo[1,2-a]pyridin-6-yl}-2-methyl-4-(piperazin-1-yl) indazole-7-carboxamide trifluoroacetate]	< 100 nM	100 to 1000 nM	100 to 1000 nM	100 to 1000 nM	1000 to 10000 nM	1000 to 10000 nM	> 10000 nM	1000 to 10000 nM
Cc1cn2cc(NC(=O)c3ccc(N4C[C@@H](C)N[C@@H](C)C4)c4cn(C)nc34)nc(C)c2n1 [Compound 334, N-{2,8-dimethylimidazo[1,2-a]pyrazin-6-yl}-4-[(3R,5S)-3,5-dimethylpiperazin-1-yl]-2-methylindazole-7-carboxamide]	< 100 nM	100 to 1000 nM	100 to 1000 nM	100 to 1000 nM	> 10000 nM	> 10000 nM	> 10000 nM	> 10000 nM
Cc1cn2cc(NC(=O)c3ccc(N4CCC(CN)CC4)c4cn(C)nc34)cc(F)c2n1 [Compound 335, 4-[4-(aminomethyl)piperidin-1-yl]-N-{8-fluoro-2-methylimidazo[1,2-a]pyridin-6-yl}-2-methylindazole-7-carboxamide]	100 to 1000 nM	1000 to 10000 nM	1000 to 10000 nM	1000 to 10000 nM	> 10000 nM	> 10000 nM	> 10000 nM	> 10000 nM
Cc1cn2cc(NC(=O)c3ccc(N4CCC(C)(N)CC4)c4cn(C)nc34)cc(F)c2n1 [Compound 336, 4-(4-amino-4-methylpiperidin-1-yl)-N-{8-fluoro-2-methylimidazo[1,2-a]pyridin-6-yl}-2-methylindazole-7-carboxamide]	< 100 nM	< 100 nM	< 100 nM	< 100 nM	100 to 1000 nM	100 to 1000 nM	100 to 1000 nM	100 to 1000 nM
Cc1cn2cc(NC(=O)c3ccc(N4CCNCC4)c4cn(CCCl)nc34)cc(F)c2n1 [Compound 337, 2-(2-chloroethyl)-N-{8-fluoro-2-methylimidazo[1,2-a]pyridin-6-yl}-4-(piperazin-1-yl)indazole-7-carboxamide]	< 100 nM	100 to 1000 nM	100 to 1000 nM	100 to 1000 nM	1000 to 10000 nM	1000 to 10000 nM	> 10000 nM	1000 to 10000 nM
